Experimental data taken from patent US20130158035A1, “[…] COMPOUNDS” (Brigham Young University, priority 2010, published 2013).

The molecules below were run on MDCK cells (assay: HGF-induced epithelial-mesenchymal transition / migration of MDCK cells on transwell filters (crystal violet densitometry)). Conditions: Canis lupus familiaris, MDCK, 24 h, Table 4, 10 μM compound, then HGF, percentage like untreated controls (unstimulated cells = maximal effect, HGF only = nil).
Type: cell-based
Procedure: MDCK cells were seeded at confluency into the wells of a transwell filter in DMEM with 10% fetal bovine serum. Cells were cultured for 24 hours. Test compounds, dissolved in DMSO, were added to each test well to a 10 μM final concentration, and then hepatocyte growth factor (HGF) was then added. The MDCK cells were cultured for 24 hours. Concurrently, controls treated with and without HGF and with no test compounds were also prepared.
After post-HGF addition culturing, transwell filters were prepared by repeated washing using ice cold PBS. The cells were then fixed with paraformaldehyde (3.7%) on ice for 15 minutes to the filters. After fixation, the transwell filters were washed repeatedly with PBS followed by staining with crystal violet for 15 minutes. The transwell filters were washed again with distilled water.
The upper surface of the transwell filters were swabbed using a cotton-tipped probe. The filters were photographed using a gel documentation system. Densitometry measurements were made on the test samples and compared with control samples.

SMILES | inhibition at 10 µM [%]
Cc1nc(NC(=O)c2ccc(N3CCCC3)c([N+](=O)[O-])c2)ccc1I [Compound B-5] | 44
Cc1nc(NC(=O)c2cccc([N+](=O)[O-])c2)ccc1Br [Compound B-6] | 88.6
Cc1cc(C)nc(NC(=O)c2cccc([N+](=O)[O-])c2)c1 [Compound B-7] | 52.5
O=C(Nc1ccccn1)c1cccc([N+](=O)[O-])c1 [Compound B-8] | 45.3
CCOc1ccc(C(=O)Nc2cccc(C)n2)cc1[N+](=O)[O-] [Compound B-9] | 34.6
CCOc1ccc(C(=O)Nc2ccc(I)cn2)cc1[N+](=O)[O-] [Compound B-10] | 69.9
COc1ccc(C(=O)Nc2cccc(C)n2)cc1[N+](=O)[O-] [Compound B-11] | < 5
O=C(Nc1ncc(Br)cc1Br)c1cccc([N+](=O)[O-])c1 [Compound B-12] | 42.4

Same assay, conditions: Canis lupus familiaris, MDCK, 24 h, Table 5, 10 μM compound, then HGF, percentage like untreated controls (unstimulated cells = maximal effect, HGF only = nil)

SMILES | inhibition at 10 µM [%]
O=C(Nc1cccc([N+](=O)[O-])c1)c1ccc(-c2ccccc2)cc1 [Compound B-15] | 31.6
CC(=O)c1cccc(NC(=O)c2ccc(-c3ccccc3)cc2)c1 [Compound B-16] | > 5
Cc1cccc(NC(=O)c2ccc(-c3ccccc3)cc2)c1 [Compound B-17] | 30.2
O=C(Nc1cccc(C(=O)c2ccccc2)c1)c1ccc(-c2ccccc2)cc1 [Compound B-18] | 93.8
O=C(Nc1cccc(Cl)c1)c1ccc(-c2ccccc2)cc1 [Compound B-19] | 93.2
NC(=O)c1cccc(NC(=O)c2ccc(-c3ccccc3)cc2)c1 [Compound B-20] | 20.6
O=C(Nc1cccc(C(=O)N2CCOCC2)c1)c1ccc(-c2ccccc2)cc1 [Compound B-21] | 27.2
COc1cc(C(=O)Nc2ccc(N(C)C)cc2)cc(OC)c1OC [Compound B-22] | > 5
CCC(=O)Nc1ccc(NC(=O)c2cc(OC)c(OC)c(OC)c2)cc1 [Compound B-23] | 29.4
COc1cc(C(=O)Nc2ccc(N3CCCC3=O)cc2)cc(OC)c1OC [Compound B-24] | 93.2
COc1cc(C(=O)Nc2ccc(N3CCCC3)cc2)cc(OC)c1OC [Compound B-25] | 94.9
CCN1CCN(c2ccc(NC(=O)c3cc(OC)c(OC)c(OC)c3)cc2Cl)CC1 [Compound B-26] | > 5
COc1cc(C(=O)Nc2ccc(Nc3ccccc3)cc2)cc(OC)c1OC [Compound B-27] | 13.7
COc1cc(C(=O)Nc2ccc(N3CCN(C)CC3)cc2)cc(OC)c1OC [Compound B-28] | 13.7
COc1cc(OC)cc(C(=O)Nc2ccc(N3CCCC3)cc2)c1 [Compound B-29] | 26.4
CCCCOc1ccc(C(=O)Nc2ccc(N3CCCC3=O)cc2)cc1 [Compound B-30] | 81.1
Cc1cc(NC(=O)c2cccc([N+](=O)[O-])c2)ccc1I [Compound B-31] | 53.1
Cc1cc(NC(=O)c2cccc([N+](=O)[O-])c2C)c(C)cc1I [Compound B-32] | 36.1
Cc1cc(NC(=O)c2ccc(C)c([N+](=O)[O-])c2)c(C)cc1I [Compound B-33] | 56.9
COc1ccc(C(=O)c2cc([N+](=O)[O-])ccc2N2CCOCC2)cc1 [Compound B-34] | 93.4
O=[N+]([O-])c1cccc(S(=O)(=O)Nc2ccc(Cl)c(Cl)c2)c1 [Compound B-35] | 71.1
Cc1cccc(NS(=O)(=O)c2cccc([N+](=O)[O-])c2)c1 [Compound B-36] | 79.2
Cc1cc(C)cc(NS(=O)(=O)c2cccc([N+](=O)[O-])c2)c1 [Compound B-37] | 79.9
Cc1cc(C)c(NS(=O)(=O)c2cccc([N+](=O)[O-])c2)c(C)c1 [Compound B-38] | 100
O=[N+]([O-])c1cccc(S(=O)(=O)Nc2ccc(I)cc2)c1 [Compound B-39] | 89.3
COc1cccc(C(=O)Nc2cccc(C(=O)c3ccccc3)c2)c1 [Compound B-40] | 93.1

Same assay, conditions: Canis lupus familiaris, MDCK, 24 h, Table 6, 10 μM compound, then HGF, percentage like untreated controls (unstimulated cells = maximal effect, HGF only = nil)

SMILES | inhibition at 10 µM [%]
CCOC(=O)c1[nH]c2c(c1C)C(=O)CC(c1cccc(OC)c1)C2 (stereo not drawn) [Compound C-1] | 96
CCOC(=O)c1[nH]c2c(c1C)C(=O)CC(c1cccs1)C2 (stereo not drawn) [Compound C-2] | 49.7
COC(=O)c1[nH]c2c(c1C)C(=O)CC(c1cccs1)C2 (stereo not drawn) [Compound C-3] | 84.1
CCOC(=O)c1[nH]c2c(c1C)C(=O)CC(c1ccco1)C2 (stereo not drawn) [Compound C-4] | 62.2
Cc1c(C(=O)OCc2ccccc2)[nH]c2c1C(=O)CC(c1cccs1)C2 (stereo not drawn) [Compound C-5] | 41.6
Cc1ccc(COC(=O)c2[nH]c3c(c2C)C(=O)CC(c2cccs2)C3)cc1 (stereo not drawn) [Compound C-6] | 48.4
Cc1c(C(=O)OC(C)C)[nH]c2c1C(=O)CC(c1cccs1)C2 (stereo not drawn) [Compound C-7] | 35.9
CCOC(=O)c1[nH]c2c(c1C)C(=O)CC(c1ccccc1)C2 (stereo not drawn) [Compound C-8] | 30.6
CCCc1c(C(=O)OCC)[nH]c2c1C(=O)CC(c1cccs1)C2 (stereo not drawn) [Compound C-9] | 15.3
Cc1c(C(=O)OC2CCCC2)[nH]c2c1C(=O)CC(c1cccs1)C2 (stereo not drawn) [Compound C-10] | 8.8
Cc1c(C(=O)OC2CCCCC2)[nH]c2c1C(=O)CC(c1cccs1)C2 (stereo not drawn) [Compound C-11] | < 5
CCOC(=O)c1[nH]c2c(c1C)C(=O)CC(c1ccc(OC)cc1)C2 (stereo not drawn) [Compound C-13] | < 5
Cc1c(C(=O)OC2CCCC2)[nH]c2c1C(=O)CC(c1ccco1)C2 (stereo not drawn) [Compound C-14] | < 5
Cc1c(C(=O)OCc2ccccc2)[nH]c2c1C(=O)CC(c1ccco1)C2 (stereo not drawn) [Compound C-15] | < 5
COC(=O)c1[nH]c2c(c1C)C(=O)CC(c1ccc(OC)cc1)C2 (stereo not drawn) [Compound C-16] | < 5
Cc1c(C(=O)OCC2CCCO2)[nH]c2c1C(=O)CC(c1cccs1)C2 (stereo not drawn) [Compound C-17] | 75.7
Cc1c(C(=O)OC2CCCC2C)[nH]c2c1C(=O)CC(c1cccs1)C2 (stereo not drawn) [Compound C-18] | 92.2

Same assay, conditions: Table 4; 10 μM compound, then HGF, 24 hours; percentage like untreated controls (unstimulated cells = maximal effect, HGF only = nil)

SMILES | Assay Value [%]
Cc1nc(NC(=O)c2ccc(N3CCOCC3)c([N+](=O)[O-])c2)ccc1I [Compound B-13] | 29.4

Same assay, conditions: Table 5; 10 μM compound, then HGF, 24 hours; percentage like untreated controls (unstimulated cells = maximal effect, HGF only = nil)

SMILES | Assay Value [%]
Cc1cc(NC(=O)c2cccc([N+](=O)[O-])c2)ccc1O [Compound B-14] | 34.6

Same assay, conditions: Table 6; 10 μM compound, then HGF, 24 hours; percentage like untreated controls (unstimulated cells = maximal effect, HGF only = nil)

SMILES | Assay Value [%]
Cc1c(C(=O)OC2CCCC2C)[nH]c2c1C(=O)CC(c1cccs1)C2 (stereo not drawn) [Compound C-12] | <5
